Drawing on patent US9884048B2, “ERK inhibitors” (Merck Sharp & Dohme Corp., priority 2014, dated 2018), this text covers IC50 for 24 compounds.

This test has as its target phosphorylated active hERK2 enzyme (Homo sapiens (Human), UniProt P28482). The conditions noted are these: read-out: ERK2 IC50; IMAP-FP assay; 0.5 nM hERK2, 30 μM ATP; 10 point titration, 3 μM starting concentration.

SMILES strings stand for the structures.

Chain of phosphorylated active hERK2 enzyme (P28482 whole entry): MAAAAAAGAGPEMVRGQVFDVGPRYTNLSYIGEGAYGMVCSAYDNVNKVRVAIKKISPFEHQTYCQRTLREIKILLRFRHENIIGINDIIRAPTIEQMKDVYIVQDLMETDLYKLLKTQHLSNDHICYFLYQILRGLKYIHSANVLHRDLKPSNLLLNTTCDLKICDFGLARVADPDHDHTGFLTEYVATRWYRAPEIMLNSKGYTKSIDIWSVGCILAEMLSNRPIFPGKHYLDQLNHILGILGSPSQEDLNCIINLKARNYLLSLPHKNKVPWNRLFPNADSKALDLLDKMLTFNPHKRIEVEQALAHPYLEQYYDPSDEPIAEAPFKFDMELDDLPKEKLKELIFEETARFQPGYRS

As for `Cc1cc(-n2ncc3cc(NC(=O)N[C@@H]4CN(C5CCC5)C[C@H]4c4ccccc4)ncc32)ccn1` [Example 196, 1-[(3S,4R)-1-cyclobutyl-4-phenylpyrrolidin-3-yl]-3-[1-(2-methylpyridin-4-yl)-1H-pyrazolo[3,4-c]pyridin-5-yl]urea], the IC50 amounted to 354 nM.
As for `Cc1cc(-n2ncc3cc(NC(=O)N[C@@H]4CN(C(C)C)C[C@H]4c4ccccc4)ncc32)ccn1` [Example 197, 1-[(3S,4R)-1-(1-methyl-ethyl)-4-phenylpyrrolidin-3-yl]-3-[1-(2-methylpyridin-4-yl)-1H-pyrazolo[3,4-c]-pyridin-5-yl]urea], the IC50 is 60.8 nM.
On to `Cc1cc(-n2ncc3cc(NC(=O)N[C@H]4CN(C(C)C)C[C@@H]4c4ccccc4)ncc32)ccn1` [Example 198, 1-[(3R,4S)-1-(1-methylethyl)-4-phenylpyrrolidin-3-yl]-3-[1-(2-methylpyridin-4-yl)-1H-pyrazolo[3,4-c]pyridin-5-yl]urea], for which the IC50 came to 2.64 nM.
As for `CCN1C[C@H](NC(=O)Nc2cc3cnn(-c4ccnc(C)c4)c3cn2)[C@@H](c2ccccc2)C1` [Example 199, 1-[(3R,4S)-1-ethyl-4-phenylpyrrolidin-3-yl]-3-[1-(2-methylpyridin-4-yl)-1H-pyrazolo[3,4-c]pyridin-5-yl]urea], the concentration for half-maximal inhibition (IC50) stood at 0.718 nM.
For `CCN1C[C@@H](NC(=O)Nc2cc3cnn(-c4ccnc(C)c4)c3cn2)[C@H](c2ccccc2)C1` [Example 200, 1-[(3S,4R)-1-ethyl-4-phenylpyrrolidin-3-yl]-3-[1-(2-methylpyridin-4-yl)-1H-pyrazolo[3,4-c]pyridin-5-yl]urea], the IC50 amounted to 20.6 nM.
Under `Cc1cc(-n2ncc3cc(NC(=O)N[C@@H]4CN(C)C5(COC5)[C@H]4c4ccccc4)ncc32)ccn1` [Example 201, 1-[(7S,8S)-5-methyl-8-phenyl-2-oxa-5-azaspiro[3.4]oct-7-yl]-3-[1-(2-methylpyridin-4-yl)-1H-pyrazolo[3,4-c]pyridin-5-yl]urea] stands 0.689 nM; under `Cc1cc(-n2ncc3cc(NC(=O)N[C@H]4CN(C)C5(COC5)[C@@H]4c4ccccc4)ncc32)ccn1` [Example 202, 1-[(7R,8R)-5-methyl-8-phenyl-2-oxa-5-azaspiro[3.4]oct-7-yl]-3-[1-(2-methylpyridin-4-yl)-1H-pyrazolo[3,4-c]pyridin-5-yl]urea], 300 nM.
Under `Cc1cc(-n2ncc3cc(NC(=O)N[C@@H](C)c4ccccn4)ncc32)ccn1` [Example 203, 1-[1-(2-methylpyridin-4-yl)-1H-pyrazolo[3,4-c]pyridin-5-yl]-3-[(1S)-1-pyridin-2-ylethyl]urea] stands 1180 nM.
Take `Cc1cc(-n2ncc3cc(NC(=O)N[C@H](C)c4ccccn4)ncc32)ccn1` [Example 204, 1-[1-(2-methylpyridin-4-yl)-1H-pyrazolo[3,4-c]pyridin-5-yl]-3-[(1R)-1-pyridin-2-ylethyl]urea]: the IC50 turned out to be 7.84 nM.
Turning to `C[C@@H](NC(=O)Nc1cc2cnn(-c3cnn(C)c3)c2cn1)c1ccc(F)c(Cl)c1` [Example 205, (R)-1-(1-(3-chloro-4-fluorophenyl)ethyl)-3-(1-(1-methyl-1H-pyrazol-4-yl)-1H-pyrazolo[3,4-c]pyridin-5-yl)urea], the half-inhibitory concentration (IC50) turned out to be 12.1 nM.
Under `Cn1ncc2ccc(-n3ncc4cc(NC(=O)N[C@@H](c5ccccc5)C(C)(C)O)ncc43)cc21` [Example 206, 1-[(1S)-2-hydroxy-2-methyl-1-phenylpropyl]-3-[1-(1-methyl-1H-indazol-6-yl)-1H-pyrazolo[3,4-c]pyridin-5-yl]urea] stands 0.99 nM.
Under `Cn1cc2cc(-n3ncc4cc(NC(=O)N[C@@H](c5ccccc5)C(C)(C)O)ncc43)ccc2n1` [Example 207, 1-[(1S)-2-hydroxy-2-methyl-1-phenylpropyl]-3[-1-(2-methyl-2H-indazol-5-yl)-1H-pyrazolo[3,4-c]pyridin-5-yl]urea] stands 0.33 nM; under `CN1C[C@H](NC(=O)Nc2cc3cnn(-c4ccc(F)cc4)c3cn2)[C@@H](c2ccccc2)C1` [Example 208, 1-[1-(4-fluorophenyl)-1H-pyrazolo[3,4-c]pyridin-5-yl]-3-[(3R,4S)-1-methyl-4-phenylpyrrolidin-3-yl]urea], 0.579 nM.
Under `COC[C@H](NC(=O)Nc1cc2cnn(-c3ccnc(C)c3)c2cn1)c1ccccn1` [Example 209, 1-[(1R)-2-methoxy-1-pyridin-2-ylethyl]-3-[1-(2-methylpyridin-4-yl)-1H-pyrazolo[3,4-c]pyridin-5-yl]urea] stands 24.5 nM.
Turning to `COC[C@@H](NC(=O)Nc1cc2cnn(-c3ccnc(C)c3)c2cn1)c1ccccn1` [Example 210, 1-[(1S)-2-methoxy-1-pyridin-2-ylethyl]-3-[1-(2-methylpyridin-4-yl)-1H-pyrazolo[3,4-c]pyridin-5-yl]urea], the half-maximal inhibitory concentration (IC50) was determined as 745 nM.
Under `Cc1cncc(-n2ncc3cc(NC(=O)N[C@H](C)c4ccccc4)ncc32)n1` [Example 211, 1-[1-(6-methylpyrazin-2-yl)-1H-pyrazolo[3,4-c]pyridin-5-yl]-3-[(1R)-1-phenylethyl]urea] stands 549 nM; under `Cc1cnc(-n2ncc3cc(NC(=O)N[C@H](C)c4ccccc4)ncc32)cn1` [Example 212, 1-[1-(5-methylpyrazin-2-yl)-1H-pyrazolo[3,4-c]pyridin-5-yl]-3-[(1R)-1-phenylethyl]urea], 521 nM.
Consider `Cc1ccc(-n2ncc3cc(NC(=O)N[C@H](C)c4ccccc4)ncc32)nn1` [Example 213, 1-[1-(6-methylpyridazin-3-yl)-1H-pyrazolo[3,4-c]pyridin-5-yl]-3-[(1R)-1-phenylethyl]urea], for which the IC50 turned out to be 208 nM.
As for `Cc1cc(-n2ncc3cc(NC(=O)NCc4ccc(F)c(Cl)c4)ncc32)ccn1` [Example 214, 1-(3-chloro-4-fluorobenzyl)-3-[1-(2-methylpyridin-4-yl)-1H-pyrazolo[3,4-c]pyridin-5-yl]urea], the IC50 amounted to 4.05 nM.
To `Cc1cc(-n2ncc3cc(NC(=O)NCc4cccc(Cl)c4)ncc32)ccn1` [Example 215, 1-(3-chlorobenzyl)-3-[1-(2-methylpyridin-4-yl)-1H-pyrazolo[3,4-c]pyridin-5-yl]urea] belongs 5.04 nM.
Under `Cn1cc(-n2ncc3cc(NC(=O)NCc4cccc(Cl)c4)ncc32)cn1` [Example 216, 1-(3-chlorobenzyl)-3-[1-(1-methyl-1H-pyrazol-4-yl)-1H-pyrazolo[3,4-c]pyridin-5-yl]urea] stands 15.7 nM; under `C[C@@H](NC(=O)Nc1cc2cnn(-c3cnn(C)c3)c2cn1)c1cccc(Cl)c1` [Example 217, 1-[(1R)-1-(3-chlorophenyl)ethyl]-3-[1-(1-methyl-1H-pyrazol-4-yl)-1H-pyrazolo[3,4-c]pyridin-5-yl]urea], 5.45 nM.
Under `Cn1cc(-n2ncc3cc(NC(=O)NCc4ccc(F)c(Cl)c4)ncc32)cn1` [Example 218, 1-(3-chloro-4-fluorobenzyl)-3-[1-(1-methyl-1H-pyrazol-4-yl)-1H-pyrazolo[3,4-c]pyridin-5-yl]urea] stands 20.8 nM.
For the compound `Cc1cc(-n2ncc3cc(NC(=O)N[C@H](C)c4ccc(F)c(Cl)c4)ncc32)ccn1` [Example 219, 1-[(1R)-1-(3-chloro-4-fluorophenyl)ethyl]-3-[1-(2-methylpyridin-4-yl)-1H-pyrazolo[3,4-c]pyridin-5-yl]urea], the IC50 worked out at 2.85 nM.
